Measured values: EP2879647B1, “SKIN CARE” (University of Pretoria, priority 2012, dated 2014)
≈ marks a conversion by molar mass, not a printed value. Where “and” joins values, the source holds several entries; their conditions need not be identical. Identical values can stand only once. *1 amine or outer side, *2 acyl side, *3 side chain or, on linkers, in order; H or OH if unused. Where a SMILES comes first, the peptide text is derived from it. Bridges are numbered along the chain shown (N, C = ends). Roman numbers before positions name the chains, in order. [ ]: non-standard residue; d: D form. Actinocin(9to1) = Cc1c2oc3c(C)ccc(C(=O)[*:1])c3nc-2c(C(=O)[*:2])c(N)c1=O; NMeV = CN[C@H](C(=O)O)C(C)C; Sar = CNCC(=O)O

What was measured:
[1] = tested on: Propionibacterium acnes (ATCC 11827); test: Antibacterial bioassay, MIC by broth microdilution (INT colour change); conditions: Cutibacterium acnes, ATCC11827, 72 h, read-out: Antibacterial MIC
Experimental: Briefly, the bacteria was cultured from a Kwik-Stick on nutrient agar and incubated at 37°C for 72 h under anaerobic conditions before the assay. The 72 h culture of the bacteria was dissolved in nutrient broth and the suspension was adjusted to 0.5 McFarland standard turbidity. […] In a sterile 96-well plate, 100 µl of samples from the stock solution consisting of the plant extract/ isolated compounds (2 mg/ml in 10% dimethyl sulphoxide (DMSO)) and the positive control tetracycline (0.2 mg/ml) was diluted with broth. […] The bacterial suspension (100 µl) was added to the wells. […] The plates were incubated at 37°C for 72 h in an anaerobic environment.

MAC tumour cells = conditions: Woldemariam et al. (1992); cited from earlier work
U937 human macrophage = test: In vitro cytotoxicity assay (XTT); conditions: XTT
Experimental: (§1) The mouse melanocytes (B16-F10) cells were cultured in a complete Minimum Essential Eagle's Medium (MEM) whereas the human U937 cells were cultured in Roswell Park Memorial Institute (RPMI) containing 10% fetal bovine serum (FBS) and 1% gentamycin. B16-F10 (10^5 cells per well) and U937 (10^6 cells per well) were seeded into a 96-well plate. […] The plate was then incubated at 37°C in 5% CO2, and a humidified atmosphere after which the toxicity effects of the extracts was assayed using the XTT (sodium 3'-[1-(phenyl amino-carbonyl)-3,4-tetrazolium]-bis-[4-methoxy-6-nitrobenzene sulfonic acid hydrate) cytotoxicity assay. […] By referring to the control (medium with DMSO), the cell survival rate was assessed.

[2] = In vitro cytotoxicity assay (XTT); conditions: human; for CC50: u937 cells
Experimental: as §1

[3] = In vitro cytotoxicity assay (XTT); conditions: mouse; for CC50: b16-f10 cells
Experimental: as §1

P. acnes = test: Transmission electron microscopy (TEM) of treated bacteria; conditions: 50 µg/ml, 72 h
Experimental: The bacterial suspension (5 ml) was mixed with plant extract and pure compound to a final concentration of 300 and 100 µg/ml for plant extract and 50 µg/ml for pure compound. […] The pathogen was treated for 72 h; the control group consisted of only bacterial suspension in nutrient broth. […] Samples were washed with phosphate buffer and postfixed in both 1% osmium tetraoxide and uranyl acetate. The cells were dehydrated in ethanol and embedded in quetol resin. Thin sections were prepared with a microtome and micrographs were taken using a JEOL JEM-2100F field emission electron microscope.

[4] = DPPH antioxidant (radical scavenging) assay; format: biochemical; conditions: for Antioxidant IC50 / IC50: DPPH; for Antioxidant IC50: 550 nm, samples 100 to 0.7 µg/ml; for IC50: value in brackets
Experimental: Following the procedures as described by DuToit et al. (2001) for each sample, a dilution series (8 dilutions) was prepared in a 96 well plate by adding distilled water as a dilution medium. […] Each concentration was tested in triplicates. Vitamin C was used as a positive control. The radical scavenging capacities of the samples were determined using a BIOTEK plate reader to measure the disappearance of DPPH at 550 nm. The radical scavenging activity was measured in terms of the amount of antioxidants necessary to decrease the initial DPPH absorbance by 50% (IC50). The IC50 value of each sample was determined graphically by plotting the absorbance of DPPH as a function of the sample concentration in μg/ml. The IC50 is the amount of antioxidant necessary to decrease the initial DPPH absorbance by 50%. The results were calculated using the following equation: AA% = {Absblank(Abssample-Abscontrol)/Absblank} × 100 [formula] The mg vitamin C equivalents/g dry weight of potent samples was calculated as follows: […]) = (IC50(vitc)/IC50(sample)) × 1000. [formula]

IL-8 = test: Cytokine production (ELISA) in U937 cells co-cultured with heat-killed P. acnes; format: cell-based, human; conditions: U937 cells infected with P. acnes (Fig 3b)
TNF a = test: as above; format: cell-based, human; conditions: 100 and 50 µg/ml, U937 cells infected with P. acnes (Fig 3b)
Experimental: The effect of plant extract on cytokine production (IL 8 and TNF a) was evaluated using enzyme immunoassay kits (ELIZA) using method as described previously (Tsai et al., 2010). Briefly, the log phase culture of P.acnes was harvested, washed three times with phosphate buffer saline (PBS), and incubated at 80°C for 30 min to kill the bacteria. The heat-killed bacteria were stored at 4°C until use. The human U937 cells were seeded at 10^6 cells per well in a 24-well plate and was stimulated with heat killed P. acnes (wet weight 100 µg/ml) alone and in combination with the different test samples. Pentoxifylline was used as a control. After 18 h incubation, the cell-free supernatants were collected and the concentrations of IL 8 and TNF a were analysed. Cytokine standards were serially diluted to facilitate the construction of calibration curves necessary for determining protein concentration of test samples.

CNS cancer cells (XF498) = conditions: Sung et al., 1999; cited from earlier work
[5] = tested on: skin cancer cells (SL-MEL-2); conditions: Sung et al., 1999; cited from earlier work
[6] = tested on: colorectal cancer cells (HCT15); conditions: Sung et al., 1999; cited from earlier work
[7] = constituent of Viburnum jucundum (Rios et al., 2001); cited from earlier work

For `CN(C)[C@@H]1C(O)=C(C(N)=O)C(=O)[C@@]2(O)C(O)=C3C(=O)c4c(O)cccc4[C@@](C)(O)[C@H]3C[C@@H]12` [tetracycline, reference compound], the MIC [1] was 3.1 µg/mL and 7 µM.
For `COc1c(C)c(O)c(Cc2c(O)c(C)c(OC)c(C(=O)C(C)C)c2O)c(O)c1C(=O)C(C)C` [Compound C4, alpha kosin], the “cytotoxic effects against MAC tumour cells” value (MAC tumour cells) is listed as “strong cytotoxic effects”, the “Cytotoxicity EC50 U937 human macrophage” value (U937 human macrophage) is listed as <3.12 µg/mL and the CC50 [2] is listed as < 3.12 µg/mL. The CC50 [3] was < 3.12 µg/mL, the MIC [1] was 1.9 µg/mL and 2.1 µM and the “cell injuries to P. acnes (TEM micrograph)” value (P. acnes) was “significant damage to P. acnes”. The “mg vitamin C equivalents/g dry weight” value ([4]; (IC50 vit C / IC50 sample) x 1000) was 392 mg vitamin C equivalents/g dry weight, the “Antioxidant IC50” value [4] was 5.05 µg/mL and the IC50 [4] was 10.5 µM.
In the case of `CC(=O)CCCCn1c(=O)c2c(ncn2C)n(C)c1=O` [pentoxifylline], the IL-8 concentration (IL-8) is reported as “no change” and the “inhibition of TNF a” value (TNF a) is reported as “Significant inhibition”.
For `C/C(=C\CO)CCC[C@H](C)CCC[C@H](C)CCCC(C)C` [Compound C3, phytol], the EC50 [2] was > 100 µg/mL, the viability at 100 µg/ml [2] was 100% and the EC50 [3] was > 100 µg/mL. For the same compound, the viability at 100 µg/ml [3] was 100%, the “toxicity against CNS cancer cells (XF498)” value (CNS cancer cells (XF498)) was “mild toxicity” and the MIC [1] was > 500 µg/mL. The “toxicity against skin cancer cells (SL-MEL-2)” value [5] was “mild toxicity”, the “Antioxidant IC50” value [4] was >100 µg/mL and the “toxicity against colorectal cancer cells (HCT15)” value [6] was “mild toxicity”.
In the case of `CCCCCCCCCCCCCCCCCCCCCCCCCCCCCCO` [Compound C2, triacontanol], the EC50 [2] is reported as > 100 µg/mL, the viability at 100 µg/ml [2] is reported as 100% and the EC50 [3] is reported as > 100 µg/mL. For the same compound, the viability at 100 µg/ml [3] was 100%, the MIC [1] was > 500 µg/mL and the toxicity [7] was “non toxic”. The “Antioxidant IC50” value [4] was >100 µg/mL.
For `O=C1O[C@H]([C@@H](O)CO)C(O)=C1O` [vitamin C, reference compound], the “Antioxidant IC50” value [4] was 1.98 µg/mL and the IC50 [4] was 11.3 µM.
For `CC(=O)OC/C=C(\C)CCC[C@H](C)CCC[C@H](C)CCCC(C)C` [Compound C1, phytol acetate], the MIC [1] was > 500 µg/mL and the “Antioxidant IC50” value [4] was >100 µg/mL.
For `Cc1c2oc3c(C)ccc(C(=O)N[C@@H]4C(=O)N[C@H](C(C)C)C(=O)N5CCC[C@H]5C(=O)N(C)CC(=O)N(C)[C@@H](C(C)C)C(=O)O[C@@H]4C)c3nc-2c(C(=O)N[C@@H]2C(=O)N[C@H](C(C)C)C(=O)N3CCC[C@H]3C(=O)N(C)CC(=O)N(C)[C@@H](C(C)C)C(=O)O[C@@H]2C)c(N)c1=O` [actinomycin D, reference compound] (I: T[dV]P[Sar][NMeV] / II: T[dV]P[Sar][NMeV]; ester I:1-I:C, II:1-II:C; linker I:N-II:N via Actinocin(9to1)), the CC50 [2] was 0.0045 µg/mL (≈ 0.00358 µM) and the CC50 [3] was 0.0045 µg/mL (≈ 0.00358 µM).
